According to patent publication US20090155179A1, “KINETIC BIOMARKER FOR QUANTIFICATION OF LYMPHOPROLIFERATION, CLONAL EXPANSION, RECRUITMENT AND TRAFFICKING IN LYMPHOID TISSUES AND OF THE IN VIVO ACTIONS OF ANTIGENS AND MODULATING THEREON” (KINEMED, INC., priority 2005, published 2009):
Entries after “also recorded” stand apart in the source; their conditions may differ.

Assays:
[1] = system: PLN cells (draining popliteal lymph node lymphocytes); experiment: kinetic PLNA (popliteal lymph node assay) with continuous 2H2O labeling after footpad immunization; type: in vivo, Balb/c mice; conditions: for PLN cellularity under drug treatment: 5 μg KLH or PBS, Rap 2 mg/kg/d p.o.
Method: PLNA and heavy water labeling. The kinetic PLNA was performed as follows, except as noted in the Figure legends. In all experiments, groups of n=4 or 5 Balb/c mice were immunized subcutaneously on day 0 in the left hind footpad (toe to heel direction) with 20 μl PBS or drug vehicle (negative control group), or with 20 μl PBS containing 5-25 μg KLH (positive control group). Heavy water labeling was initiated on day 0 by intraperitoneal administration of 99.9% ^2H2O containing 0.9% w/v NaCl at 35 ml/kg body weight, and animals were maintained on 8% ^2H2O in drinking water for the remainder of the study. At day 7 post immunization, animals were bled into heparinized tubes by cardiac puncture under isoflurane anesthesia and sacrificed by cervical dislocation. The blood was centrifuged at 1500×g for 10 minutes, and heparinized plasma was stored at −20° C. for determination of body water ^2H enrichment; a second aliquot was frozen for serologic studies. Bone marrow was harvested from the right hindlimb femur by flushing the bone with 1 ml PBS using a 25 ga cannula and centrifuging the tissue and cell suspension at 450×g for 5 min.
Analysis of PLN cells. Draining PLN were dissected from the left hind limb, mechanically dispersed, using tweezers, into ice-cold RPMI 1640 containing 10% fetal bovine serum and antibiotics. The cell suspensions were thoroughly mixed and strained through a 35 μm cell strainer fitted to a 12×75 mm polystyrene tube (BD Biosciences, San Jose, Calif.) and centrifuged at 450×g at 4° C. for 5 min. Cells were suspended in 100 μl staining buffer (PBS containing 0.5% w/v bovine serum albumin, 2 mM EDTA, and 0.05% sodium azide), blocked by addition of 20 μl mg/ml murine IgG (Sigma) and 2 μl anti-CD16/CD32 mAb (Miltenyi Biotec, City/State) at 4° C. for 15 min., and stained with anti-CD3-FITC and anti-B220-PE/Cy5 (eBioscience, 1 μl each) for 15 min. The samples were diluted to 900 μl with staining buffer, mixed thoroughly with 100 μl Flow-Count fluorospheres, and analyzed on an Epics XL flow cytometer (Beckman Coulter, City/State) for determination of absolute lymph node cell counts and percentages and absolute counts of T cells, B cells, and non-T/B cells. Absolute cell counts per lymph node were determined as:
Analysis of ^2H incorporation into purine dR. DNA was extracted from samples of bone marrow, total PLN cells, or sorted T and B cells using DNEasy kits (Qiagen, Valencia, Calif.) according to the manufacturer's instructions. Aliquots (0.5 μg) were hydrolyzed to […] by overnight incubation at 37° C. with 0.5 units nuclease SI (Sigma) and 0.25 units potato acid phosphatase (Calbiochem) in 75 mM sodium acetate buffer, pH 4.8, containing 0.15 mM ZnSO4. […] The hydroxyl groups were acetylated using acetic anhydride and N-methylimidazole, and the resultant pentafluorobenzyl […] derivative was extracted into dichloromethane, dried under vacuum, and redissolved in 100 μl ethyl acetate. The derivative was analyzed by gas chromatography/mass spectrometry (GC/MS) as described supra, with selected ion monitoring at m/z 435 (for the parent mass isotopomer, M0) and 436 (M1). After integration of the M0 and M1 peak area using ChemStation software, the excess mole fraction of the M1 mass isotopomer (EM1) was calculated as: […]
Calculations and statistics. Fractional turnover of PLN cell populations (f, the fraction of total, T, or B cells that have divided during the labeling period, representing clonal expansion, FIG. 1) was calculated as:
f=EM1observed/EM1maximal,
where EM1maximal was represented, in most experiments, by bone marrow DNA from the same animal, or assumed to equal 0.14. Alternatively, for mice labeled for less than four days, EM1maximal was represented by 0.9× the EMI value predicted from the animal's body water ^2H enrichment (the factor of 0.9 represents dilution by salvage).

[2] = system: xenografted human tumor cells; experiment: f of xenografted human tumor cells in mice; type: in vivo; conditions: 10 mg/kg/d, i.p.; previously seen
[3] = tolerability of maintained 2H2O body water enrichment; type: in vivo; conditions: 1-10% of total body water labeled, weeks or months, humans (>100 people) and experimental animals
Source text: Relatively high body water enrichments of ^2H2O (e.g., 1-10% of the total body water is labeled) may be achieved relatively inexpensively using the techniques of the invention. […] This finding in a large number of human subjects (>100 people) is contrary to previous concerns about vestibular toxicities at high doses of ^2H2O. One of the Applicants has discovered that as long as rapid changes in body water enrichment are prevented (e.g., by initial administration in small, divided doses), high body water enrichments of ^2H2O can be maintained with no toxicities. For example, the low expense of commercially available ^2H2O allows long-term maintenance of enrichments in the 1-5% range at relatively low expense.

PLN cells = experiment: kinetic PLNA with 2H2O labeling after KLH immunization in C57BI/6 mice; type: in vivo, C57BI/6 (B6) mice; conditions: B6 mice
[4] = day 7, Dex 0.3 mg/kg/d p.o., Tax 10 mg/kg/d i.p., OHU 500 mg/kg/d i.p.

O=[N+]([O-])c1ccc(Cl)c([N+](=O)[O-])c1 [DNCB, 2,4-dinitrochlorobenzene]
dose above which f reached a plateau ([1]; Balb/c, DNCB in PBS:DMSO, day 7): above 100 μg

NC(=O)NO [hydroxyurea]
PLN cellularity under drug treatment [1, 4]: modest and variable effects
f of total PLN cells after KLH stimulation ([1]; 5 μg KLH, daily drug to day 7: Rap 2 mg/kg/d p.o., OHU 500 mg/kg/d i.p.): strongly inhibited
f of total PLN cells at baseline ([1]; sham-immunized (PBS), daily drug to day 7: Rap 2 mg/kg/d p.o., OHU 500 mg/kg/d i.p.): strongly inhibited

CC(=O)O[C@H]1C(=O)[C@@]2(C)[C@H]([C@H](OC(=O)c3ccccc3)[C@]3(O)C[C@H](OC(=O)[C@H](O)[C@@H](NC(=O)c4ccccc4)c4ccccc4)C(C)=C1C3(C)C)[C@]1(OC(C)=O)CO[C@@H]1C[C@@H]2O [paclitaxel]
f of xenografted human tumor cells in mice [2]: strong inhibition
PLN cellularity under drug treatment [1, 4]: reduced
f (clonal expansion) of PLN cells under drug treatment ([1]; stimulation not specified, Tax 10 mg/kg/d i.p., Dex 0.3 mg/kg/d p.o., day 7): did not affect f

[2H]O[2H] [^2H2O]
toxicity of maintained body water enrichment [3]: without any evidence of toxicity

keyhole limpet hemocyanin [KLH]
f in sorted B cells and total T cells (PLN cells; 200 μg KLH, day 7): Neither B cells nor T cells showed a substantial increase
f in PLN cells after KLH immunization, day 7 (PLN cells; 2-200 μg KLH, day 7): no significant increase; also recorded: lower
cellularity in PLN (PLN cells; 7 days after KLH immunization): dose-dependent
f in PLN cells, time course (PLN cells; KLH, day 4): transient increase
proliferation response to low doses of KLH ([1]; Balb/c, 0.2-2 μg KLH): increase in f without a change in PLN cellularity
proliferation response to higher doses of KLH ([1]; Balb/c, 5-25 μg KLH or with incomplete Freund's adjuvant): f reached a plateau
increase of PLN cellularity ([1]; Balb/c, KLH doses that increased cellularity): 2- to 3 fold
antigen dose at which cellularity was maximal ([1]; Balb/c, KLH in PBS, day 7): around 25 μg
antigen dose at which f was maximally increased ([1]; Balb/c, KLH, as little as): 600 ng
CD4+ T cell f ([1]; Balb/c, KLH-immunized, day 7, other attempts, vs. 7.5%±1.3% without KLH, p=0.017): 11.3%±2.1
proliferating cells as share of cells in the PLN ([1]; Balb/c, any KLH dose, day 7): ≤ 20%
f in total PLN cells after immunization ([1]; Balb/c, footpad immunization, day 7): elevated to a dose-independent plateau; also recorded: significant; also recorded: increased f
f in PLN B cells after immunization ([1]; Balb/c, sorted B cells, day 7): pronounced increase; also recorded: Significant KLH effect; also recorded: significantly increased
f in CD4+ T cells after immunization ([1]; Balb/c, sorted CD4+ T cells, day 7): smaller increase
f in CD8+ T cells after immunization ([1]; Balb/c, sorted CD8+ T cells, day 7): not in CD8^+ T cells
f in total T cells after immunization ([1]; Balb/c, sorted T cells, day 7): smaller increase; also recorded: Significant KLH effect
